Experimental data published in patent US20130203846A1, “PHENYL CARBAMATE COMPOUNDS FOR USE IN PREVENTING OR TREATING ALS” (Bio-Pharm Solutions Co., Ltd., priority 2011, published 2013).
Marks after values point to notes of the source that are not given here.

Key:
Type in all cases: in vivo, mouse
male ICR mice = assay: MES (maximal electroshock seizure) test, mice; settings: for ED50: Mus musculus, oral, at peak time
Protocol: The obtained results are shown as mean±sem. The difference between the groups was statistically analyzed by ANOVA, and then, further examined by Dunnett's test or Bonferroni test. If p is less than 0.05, it was determined that the difference between the groups had statistical significance.

[1] = system: mice expressing mutated human SOD1-G93A transgene; assay: Survival of ALS transgenic mice; settings: TG G93A SOD1 mice
[2] = system: mice expressing mutated human SOD1-G93A transgene; assay: Open field test of ALS transgenic mice; settings: TG G93A SOD1 mice; 3, 10, 50 mg/kg p.o. once a day; baseline, day 90, day 110
Protocol: (§1) Altogether 80 male and female mice expressing mutated human SOD1-G93A transgene (heterozygous TgN-SOD1-G93A-1Gur; Gurney et al. (1994), Science 264, 1772. 1775) and 15 of their wild type littermates were used for the experiments. […] PCR was used to genotype the mice before the start of the experiments. […]
Open field test measurements were performed before the dosing is stated (baseline) and around day 90 (13th age week) and day 110 (16th age week). […] Mice were placed in the center of the chamber and their behaviors were recorded for 10 minutes. The following parameters were recorded: distance moved.

[3] = system: mice expressing mutated human SOD1-G93A transgene; assay: Clinical scoring and disease onset of ALS transgenic mice; settings: TG G93A SOD1 mice
From the text: Altogether 80 male and female mice expressing mutated human SOD1-G93A transgene (heterozygous TgN-SOD1-G93A-1Gur; Gurney et al. (1994), Science 264, 1772. 1775) and 15 of their wild type littermates were used for the experiments. […] PCR was used to genotype the mice before the start of the experiments.
The animals were grouped as follows: • <Non-transgenic male mice> • Group 1: 15 WT mice treated with vehicle (30% (w/v) polyethyleneclycol 400 (PEG400), once a day, p.o.) starting at 60 days of age and continuing until end-point • <Transgenic G93A SOD1 male mice: ALS-transgenic mice> • Group 2: 20 transgenic mice treated with vehicle (30% (w/v) polyethyleneclycol 400 (PEG400), once a day, p.o.) staring at 60 days of age and continuing until end-point • Group 3: 20 transgenic mice treated with a drug (Compound 1) at dose of 3 mg/kg (once a day, p.o.) staring at 60 days of age and continuing until end-point • Group 4: 20 transgenic mice treated with Compound 1 at dose of 10 mg/kg (once a day, p.o.) staring at 60 days of age and continuing until end-point • Group 5: 20 transgenic mice treated with Compound 1 at dose of 50 mg/kg (once a day, p.o.) staring at 60 days of age and continuing until end-point
Treatment with drug (Compound 1) was started at the age of 60 days and continued until the mice reached 150 days of age. The drug was administered p.o. once a day between 8-12 am. The drug solubilized in 30% (w/v) polyethyleneclycol 400 (PEG400), and the obtained solution was briefly vortexed and sonicated at RT (room temperature) for 20 minutes. Treatment solution of the drug was prepared fresh every day. […]
The earliest clinical signs were tremor and shaking of their limbs when the mice are suspended briefly in the air by their tails. […] Animals were scored by lifting them gently by the base of their tails and observing them for tremors, stiffness and their ability to extend their limbs. […]
Onset of disease for each mouse was recorded when they reach a disease stage 4.

[4] = system: mice expressing mutated human SOD1-G93A transgene; assay: Body weight of ALS transgenic mice; settings: TG G93A SOD1 mice; 3, 10, 50 mg/kg p.o. once a day; compared with WT group
From the text: as §1
Since weight loss has proven to correlate well with disease development and is easily scored co-jointly with disease stage, the mice were weighted once-a-week at the age of 60 days to 90 days and three times a week after they reach the age of 91 days (13 weeks).

male mice (ICR) [5] = assay: Muscle relaxation: wire hang test; settings: i.p., 100 mg/kg administered
Protocol: (§2) For testing, male mice (ICR) were purchased from ORIENT BIO INC. (Korea), divided into several groups with 6 mice in each group, and were adapted for 4-5 days. The mice having the weight ranging from 19 g to 26 g were employed for the test. The pharmacological effect of the test compounds on muscle relaxation was evaluated by Rotarod test, grip strength test, and muscular force (wire hang) test. All mice were adapted to the test environment at one hour before starting the tests. The pharmacological effects of all the test compounds were evaluated by administration through peritoneal cavity of the mice (10 ul/g, bw).
This experimentation was conducted using a metal wire of 30 cm in length, which was suspended between two pillars at a height of about 40 cm from the bottom covered with a soft pad. […] Each mouse was made to grip the wire using two forelimbs, and the elapse time before the mouse fell off from the wire to the pad on the bottom was recorded in seconds. Each mouse was given 5 opportunities for this test at an interval of 2 minutes period. The highest 3 records among the test opportunities were selected and the mean value was used as the test result. […]
(§3) The results of muscle relaxation activity of the phenyl carbamate compounds measured in above Experimental Examples 1.2 to 1.4 are shown in following Table 3.

male mice (ICR) [6] = assay: Muscle relaxation: grip strength test (forelimbs); settings: i.p., 120 mg/kg administered
Protocol: as §2
A grip strength test using the test animals' forelimbs was performed using an instrument equipped with triangle ring and designed so as to easily grip with the forelimbs of experimental animals, manufactured from Ugo Basile Inc. (Ugo Basile, Mode147106, Italy). […] The mouse was made to grip the rod with its forelimbs, and its tail was pulled, where the force at which the mouse detached from the rod was recorded. […] This experimentation was conducted according to the method described in the reference, ‘Nevins et al. (1993) Quantitative grip strength assessment as a means of evaluating muscle relaxation in mice. […]
as §3

[7] = group treated with 10 mg/kg p.o. once a day

Row | SMILES | MES test (po) Peak Time (male ICR mice) [h] | ED50 (male ICR mice) [mg/kg] | other results
1 | CC(OC(N)=O)C(O)c1ccccc1Cl (racemic) [Compound 3, 1-(2-chlorophenyl)-1-hydroxypropyl-2-carbamate] | 2 |  | 
2 | C[C@H](OC(N)=O)[C@@H](O)c1ccccc1Cl [Compound 1, 1-(2-chlorophenyl)-(S)-1-hydroxypropyl-(S)-2-carbamate] | 2 |  | rate (%) of survivor according to survival time (FIG. 1) ([1]; 3, 10, 50 mg/kg p.o. once a day from 60 days of age, early stage of ALS): survival time is extended; effect to increase the survival rate at early stage of ALS (FIG. 1) [1, 7]: especially remarkable; distance moved, open field test (FIG. 5) [2]: some differences between treatments group of transgenic mice; rate (%) of survivor according to disease onset time (FIG. 2) ([3]; 3, 10, 50 mg/kg p.o. once a day, onset = disease stage 4): delay the disease onset; clinical score of each group (FIG. 4) ([3]; 3, 10, 50 mg/kg p.o. once a day, scale 1 to 5, compared to TG vehicle group): clinical scores were increased by administration of the drug in the dose-dependent manner; effect to delay the disease onset (FIG. 2) [3, 7]: especially remarkable; body weight of each group (FIG. 3) [4]: body weight loss compared with WT group was decrease by administration of the drug in the dose-dependent manner
3 | C[C@@H](OC(N)=O)[C@H](O)c1ccccc1Cl [Compound 2, 1-(2-chlorophenyl)-(R)-1-hydroxypropyl-(R)-2-carbamate] | 0.25 |  | 
4 | C[C@H](OC(N)=O)[C@H](O)c1ccccc1Cl [Compound 5, 1-(2-chlorophenyl)-(R)-1-hydroxypropyl-(S)-2-carbamate] | 0.5 |  | 
5 | CC[C@H](OC(N)=O)[C@@H](O)c1ccccc1Cl [Compound 6, 1-(2-chlorophenyl)-(S)-1-hydroxybutyl-(S)-2-carbamate] | 1 | 22.2 | 
6 | CC(C)[C@H](OC(N)=O)[C@@H](O)c1ccccc1Cl [Compound 9, 1-(2-chlorophenyl)-(S)-1-hydroxy-3-methyl-butyl-(S)-2-carbamate] | 0.5 | 67.1 | 
7 | C[C@H](OC(N)=O)[C@@H](O)c1ccc(Cl)cc1Cl [Compound 36, 1-(2,4-dichlorophenyl)-(S)-1-hydroxypropyl-(S)-2-carbamate] |  | 82.8 | 
8 | C[C@H](OC(N)=O)[C@@H](O)c1c(Cl)cccc1Cl [Compound 37, 1-(2,6-dichlorophenyl)-(S)-1-hydroxypropyl-(S)-2-carbamate] | 0.25 |  | 
9 | C[C@H](OC(N)=O)[C@@H](O)c1cccc(Cl)c1Cl [Compound 38, 1-(2,3-dichlorophenyl)-(S)-1-hydroxypropyl-(S)-2-carbamate] | 2 | 91.4 | 
10 | CC[C@H](OC(N)=O)[C@@H](O)c1ccc(Cl)cc1Cl [Compound 39, 1-(2,4-dichlorophenyl)-(S)-1-hydroxybutyl-(S)-2-carbamate] | 1 | 41.2 | 
11 | CC[C@H](OC(N)=O)[C@@H](O)c1c(Cl)cccc1Cl [Compound 40, 1-(2,6-dichlorophenyl)-(S)-1-hydroxybutyl-(S)-2-carbamate] |  | 46.9 | 
12 | CC(C)[C@H](OC(N)=O)[C@@H](O)c1c(Cl)cccc1Cl [Compound 42, 1-(2,6-dichlorophenyl)-(S)-1-hydroxy-3-methyl-butyl-(S)-2-carbamate] | 0.5 | 35.2 | 
13 | C[C@@H](OC(N)=O)[C@H](O)c1c(Cl)cccc1Cl [Compound 46, 1-(2,6-dichlorophenyl)-(R)-1-hydroxypropyl-(R)-2-carbamate] | 1 | 35.2 | 
14 | C[C@@H](OC(N)=O)[C@H](O)c1ccccc1F [Compound 64, 1-(2-fluorophenyl)-(R)-1-hydroxypropyl-(R)-2-carbamate] |  |  | Wire hang: effect (%) compared to that of control treated with vehicle only (male mice (ICR) [5]): 100 ^a (30.8%); Grip strength: effect (%) compared to that of control treated with vehicle only (male mice (ICR) [6]): 120 ^a (35.4%)
